Legend:
rabbit [1] = conditions: Prenatal developmental toxicity study, new zealand white, Oral, Gavage/Intubation, dose end: 19 GD
rat [2] = conditions: Subchronic oral toxicity in rodents, other, Feed, dose end: 90 day, group: systemic, systemic / pathology gross / kidney / enlarged + systemic / pathology gross / liver / enlarged + systemic / urinalysis / glucose / glucose…
dog [3] = conditions: Combined chronic toxicity/carcinogenicity; beagle; Oral; Feed; dose end: 104 week; group: systemic; systemic / clinical chemistry / alanine aminotransferase (alt/sgpt) / alanine aminotransferase (alt/sgpt) + systemic / clinical chemistry / …
rat [4] = conditions: Combined chronic toxicity/carcinogenicity, wistar, Oral, Water, dose end: 104 week, group: systemic
dog [5] = conditions: Subchronic oral toxicity in nonrodent, beagle, Capsule, dose end: 90 day, group: systemic, systemic / clinical chemistry / alanine aminotransferase (alt/sgpt) / alanine aminotransferase (alt/sgpt) + systemic / clinical chemistry / …
rabbit [6] = conditions: Prenatal developmental toxicity study, new zealand white, Oral, Gavage/Intubation, dose end: 20 GD
dog [7] = conditions: Chronic toxicity, beagle, Oral, Capsule, dose end: 52 week, group: systemic
mouse [8] = conditions: Carcinogenicity, cd1, Oral, Water, dose end: 104 week, group: systemic
rat [9] = conditions: Prenatal developmental toxicity study, wistar, Oral, Gavage/Intubation, dose end: 17 GD
dog [10] = conditions: Subchronic oral toxicity in nonrodent, beagle, Capsule, dose end: 90 day, group: systemic
rat [11] = conditions: Prenatal developmental toxicity study, sprague dawley, Oral, Gavage/Intubation, dose end: 17 GD
rat [12] = conditions: Subchronic oral toxicity in rodents, sprague dawley, Feed, dose end: 3 month, group: systemic
mouse [13] = conditions: Subchronic oral toxicity in rodents, b6c3f1, Gavage/Intubation, dose end: 14 week, group: systemic, systemic / hematology / erythrocyte (rbc) count differential / erythrocyte (rbc) + systemic / hematology / hematocrit (hct) / hematocrit (…
rat [14] = conditions: Subchronic oral toxicity in rodents, fischer, Gavage/Intubation, dose end: 14 week, group: systemic
rat [15] = conditions: Subchronic oral toxicity in rodents; sprague dawley; Inhalation; Whole-Body; dose end: 3 month; group: systemic; systemic / clinical chemistry / gamma glutamyl transferase (ggt) / gamma glutamyl transferase (ggt) + systemic / clinical chemistry / …
rat [16] = conditions: Combined chronic toxicity/carcinogenicity; sprague dawley; Inhalation; Whole-Body; dose end: 24 month; group: systemic; systemic / clinical chemistry / alanine aminotransferase (alt/sgpt) / alanine aminotransferase (alt/sgpt) + systemic / clinical chemistry / …
mouse [17] = conditions: Subchronic oral toxicity in rodents, cd1, Feed, dose end: 13 week, group: systemic, systemic / organ weight / liver / absolute + systemic / organ weight / liver / relative to body weight + systemic / pathology microscopic / …
dog [18] = conditions: Chronic toxicity; beagle; Oral; Feed; dose end: 12 month; group: systemic; systemic / clinical chemistry / alkaline phosphatase (alp/alk) / alkaline phosphatase (alp/alk) + systemic / organ weight / liver / absolute…
mouse [19] = conditions: Carcinogenicity, cd1, Oral, Feed, dose end: 80 week, group: systemic
rat [20] = conditions: Subchronic oral toxicity in rodents, fischer, Feed, dose end: 90 day, group: systemic
rat [21] = conditions: Combined chronic toxicity/carcinogenicity, fischer, Oral, Feed, dose end: 24 month, group: systemic
[22] = group: developmental, developmental / developmental malformation / bone / supernumerary + systemic / in life observation / body weight / fetal weight
[23] = group: maternal, systemic / in life observation / body weight / body weight gain
[24] = systemic / clinical chemistry / cholesterol / cholesterol + systemic / clinical chemistry / triglycerides / triglycerides + systemic / …
[25] = group: developmental, developmental / developmental malformation / bone / enlarge suture + developmental / developmental malformation / bone / incomplete …
[26] = group: maternal, systemic / in life observation / body weight / body weight gain + systemic / in life observation / food consumption / food consumption + …
[27] = systemic / clinical chemistry / alanine aminotransferase (alt/sgpt) / alanine aminotransferase (alt/sgpt) + systemic / pathology microscopic…
[28] = systemic / clinical chemistry / aspartate aminotransferase (ast/sgot) / aspartate aminotransferase (ast/sgot) + systemic / hematology / …
[29] = systemic / in life observation / food consumption / food consumption + systemic / in life observation / water consumption / water …
[30] = systemic / pathology microscopic / liver / sarcoma + systemic / pathology gross / full gross necropsy / sarcoma
[31] = group: developmental, developmental / developmental malformation / bone / unossified + developmental / developmental malformation / other / other + systemic / in …
[32] = group: maternal, systemic / in life observation / body weight / body weight gain + systemic / in life observation / food consumption / food consumption
[33] = systemic / organ weight / liver / absolute + systemic / organ weight / liver / relative to body weight
[34] = group: developmental, developmental / developmental malformation / bone / full supernumerary + developmental / developmental malformation / bone / cervical + …
[35] = systemic / hematology / hematocrit (hct) / hematocrit (hct) + systemic / hematology / hemoglobin (hgb) / hemoglobin (hgb)
[36] = systemic / hematology / hematocrit (hct) / hematocrit (hct) + systemic / hematology / hemoglobin (hgb) / hemoglobin (hgb) + systemic / in …
[37] = systemic / clinical chemistry / alanine aminotransferase (alt/sgpt) / alanine aminotransferase (alt/sgpt) + systemic / clinical chemistry / …
[38] = systemic / hematology / hematocrit (hct) / hematocrit (hct) + systemic / pathology microscopic / nose / degeneration + systemic / clinical …
[39] = systemic / in life observation / body weight / body weight + systemic / in life observation / body weight / body weight gain + systemic / …
[40] = systemic / in life observation / body weight / body weight gain + systemic / pathology microscopic / liver / hypertrophy + systemic / in …
[41] = systemic / in life observation / body weight / body weight gain + systemic / pathology microscopic / liver / hypertrophy + systemic / organ …
[42] = systemic / in life observation / body weight / body weight gain + systemic / organ weight / kidney / relative to body weight
[43] = systemic / in life observation / body weight / body weight gain + systemic / organ weight / kidney / relative to body weight + systemic / …

COc1cc(Cl)c(OC)cc1Cl [Chloroneb]
LEL (rabbit [1]; [22]): 1000 mg/kg/day | LOAEL (rabbit [1]; [22]): 1000 mg/kg/day | NEL (rabbit [1]; [22]): 100 mg/kg/day | NOAEL (rabbit [1]; [22]): 100 mg/kg/day | LEL (rabbit [1]; [23]): 1000 mg/kg/day | LOAEL (rabbit [1]; [23]): 1000 mg/kg/day | NEL (rabbit [1]; [23]): 100 mg/kg/day | NOAEL (rabbit [1]; [23]): 100 mg/kg/day | LEL (rat [2]): 375 mg/kg/day | LOAEL (rat [2]): 375 mg/kg/day | NEL (rat [2]): 25 mg/kg/day | NOAEL (rat [2]): 25 mg/kg/day | LEL (dog [3]): 62.5 mg/kg/day | LOAEL (dog [3]): 62.5 mg/kg/day | NEL (dog [3]): 12.5 mg/kg/day | NOAEL (dog [3]): 12.5 mg/kg/day

CNC(=S)[S-].[Na+] [Metam-sodium]
LOAEL (rat [4]; [24]): 12 mg/kg/day | NOAEL (rat [4]; [24]): 3.9 mg/kg/day | LEL (rat [4]; systemic / in life observation / body weight / body weight gain): 6.2 mg/kg/day | NEL (rat [4]; systemic / in life observation / body weight / body weight gain + systemic / clinical chemistry / cholesterol / cholesterol + systemic / …): 2.3 mg/kg/day | LEL (dog [5]): 1 mg/kg/day | LOAEL (dog [5]): 1 mg/kg/day | NEL (dog [5]): < 1 mg/kg/day | NOAEL (dog [5]): < 1 mg/kg/day | LEL (rabbit [6]; [25]): 20 mg/kg/day | LOAEL (rabbit [6]; [25]): 20 mg/kg/day | NEL (rabbit [6]; [25]): 5 mg/kg/day | NOAEL (rabbit [6]; [25]): 5 mg/kg/day | LEL (rabbit [6]; [26]): 20 mg/kg/day | LOAEL (rabbit [6]; [26]): 20 mg/kg/day | NEL (rabbit [6]; [26]): 5 mg/kg/day | NOAEL (rabbit [6]; [26]): 5 mg/kg/day | LOAEL (dog [7]; [27]): 1 mg/kg/day | NOAEL (dog [7]; [27]): 0.1 mg/kg/day | LEL (dog [7]; [28]): 0.05 mg/kg/day | NEL (dog [7]; [28]): < 0.05 mg/kg/day | LOAEL (mouse [8]; [29]): 6.5 mg/kg/day | NOAEL (mouse [8]; [29]): 1.6 mg/kg/day | LEL (mouse [8]; [30]): 1.6 mg/kg/day | NEL (mouse [8]; [30]): < 1.6 mg/kg/day | LOAEL (rat [9]; group: developmental, developmental / developmental malformation / bone / unossified + developmental / developmental malformation / other / other): 20 mg/kg/day | LEL (rat [9]; [31]): 20 mg/kg/day | NEL (rat [9]; [31]): 5 mg/kg/day | NOAEL (rat [9]; [31]): 5 mg/kg/day | LOAEL (rat [9]; [32]): 20 mg/kg/day | LEL (rat [9]; [26]): 20 mg/kg/day | NEL (rat [9]; [26]): 5 mg/kg/day | NOAEL (rat [9]; [26]): 5 mg/kg/day

CC(C)(C)C(O)/C(=C\c1ccc(Cl)cc1Cl)n1cncn1 (stereo not given) [Diniconazole]
LOAEL (dog [10]; systemic / in life observation / food consumption / food efficiency): 200 mg/kg/day | NOAEL (dog [10]; systemic / in life observation / food consumption / food efficiency + systemic / clinical chemistry / alkaline phosphatase (alp/alk) / …): 40 mg/kg/day | LEL (dog [10]; [33]): 40 mg/kg/day | NEL (dog [10]; [33]): < 40 mg/kg/day | LOAEL (rat [11]; group: developmental, developmental / developmental malformation / bone / full supernumerary + developmental / developmental malformation / bone / cervical): 20 mg/kg/day | LEL (rat [11]; [34]): 20 mg/kg/day | NEL (rat [11]; [34]): 5 mg/kg/day | NOAEL (rat [11]; [34]): 5 mg/kg/day | LEL (rat [11]; [32]): 20 mg/kg/day | LOAEL (rat [11]; [32]): 20 mg/kg/day | NEL (rat [11]; [26]): 5 mg/kg/day | NOAEL (rat [11]; [26]): 5 mg/kg/day | LOAEL (rat [12]; [35]): 0.71 mg/kg/day | NOAEL (rat [12]; [35]): < 0.71 mg/kg/day | LEL (rat [12]; [36]): 0.71 mg/kg/day | NEL (rat [12]; [36]): < 0.71 mg/kg/day

CCCC=NO [Butanal oxime]
LEL (mouse [13]): 25 mg/kg/day | LOAEL (mouse [13]): > 600 mg/kg/day | NEL (mouse [13]): < 25 mg/kg/day | NOAEL (mouse [13]): ≥ 600 mg/kg/day | LOAEL (rat [14]; [37]): > 600 mg/kg/day | NOAEL (rat [14]; [37]): ≥ 600 mg/kg/day | LEL (rat [14]; [38]): 25 mg/kg/day | NEL (rat [14]; [38]): < 25 mg/kg/day

C=CN1CCCC1=O [N-Vinyl-2-pyrrolidone]
LEL (rat [15]): 45 ppm | LOAEL (rat [15]): > 45 ppm | NEL (rat [15]): < 45 ppm | NOAEL (rat [15]): ≥ 45 ppm | LEL (rat [16]): 5 ppm | LOAEL (rat [16]): > 20 ppm | NEL (rat [16]): < 5 ppm | NOAEL (rat [16]): ≥ 20 ppm

Fc1ccc(Oc2ccnc3cc(Cl)cc(Cl)c23)cc1 [Quinoxyfen]
LEL (mouse [17]): 500 mg/kg/day | LOAEL (mouse [17]): 500 mg/kg/day | NEL (mouse [17]): 100 mg/kg/day | NOAEL (mouse [17]): 100 mg/kg/day | LEL (dog [18]): 200 mg/kg/day | LOAEL (dog [18]): 200 mg/kg/day | NEL (dog [18]): 20 mg/kg/day | NOAEL (dog [18]): 20 mg/kg/day | LOAEL (mouse [19]; systemic / in life observation / body weight / body weight + systemic / in life observation / body weight / body weight gain): 250 mg/kg/day | LEL (mouse [19]; [39]): 250 mg/kg/day | NEL (mouse [19]; [39]): 80 mg/kg/day | NOAEL (mouse [19]; [39]): 80 mg/kg/day | NEL (rat [20]; [40]): 10 mg/kg/day | NOAEL (rat [20]; [40]): 10 mg/kg/day | LEL (rat [20]; [41]): 100 mg/kg/day | LOAEL (rat [20]; [41]): 100 mg/kg/day | NEL (rat [21]; [42]): 20 mg/kg/day | NOAEL (rat [21]; [42]): 20 mg/kg/day | LEL (rat [21]; [43]): 80 mg/kg/day | LOAEL (rat [21]; [43]): 80 mg/kg/day

— EPA's ToxRefDB 2
